Series [1] concerns the target T1, human ALDH2*2 recombinant mutant enzyme (E487K) (Homo sapiens, UniProt P05091, E504K).
T1 construct: His-tag (pTrcHis vector) (N); made in house; host or cells: E. coli BL21
T1 sequence (P05091 18-517 E504K): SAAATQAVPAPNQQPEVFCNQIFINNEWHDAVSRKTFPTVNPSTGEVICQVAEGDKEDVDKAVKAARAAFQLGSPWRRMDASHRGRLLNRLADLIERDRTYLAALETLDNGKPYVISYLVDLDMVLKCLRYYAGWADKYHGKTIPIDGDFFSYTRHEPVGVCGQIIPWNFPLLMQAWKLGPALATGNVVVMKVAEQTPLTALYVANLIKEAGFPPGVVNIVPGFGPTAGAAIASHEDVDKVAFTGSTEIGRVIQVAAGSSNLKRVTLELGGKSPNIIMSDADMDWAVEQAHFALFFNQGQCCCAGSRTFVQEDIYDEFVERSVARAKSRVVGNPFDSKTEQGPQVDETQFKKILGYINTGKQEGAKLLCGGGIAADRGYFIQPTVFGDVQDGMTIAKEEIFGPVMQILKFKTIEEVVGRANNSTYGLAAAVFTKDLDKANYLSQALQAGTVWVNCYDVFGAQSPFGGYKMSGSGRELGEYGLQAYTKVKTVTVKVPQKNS
In words: ALDH2 enzymatic assay (NADH at 340 nm), recombinant mutant enzyme. The format is biochemical. The arrangement: key: −: no activation or inhibition; +: activation less than control 1; ++: activation similar to control 1, within 10%; +++: activation more than control 1 and less than control (compound 161); ++++: activation similar to compound 161, within 10%. The conditions noted are these: activation relative to benchmarks control 1 and compound 161.

Series [2] addresses T2, human ALDH2 wild type (Homo sapiens, UniProt P05091).
T2 construct: His-tag (pTrcHis vector) (N); made in house; host or cells: E. coli BL21
T2 sequence (P05091 18-517): T1 sequence (P05091 18-517 E504K) with K487E
In words: ALDH2 enzymatic assay (NADH at 340 nm), recombinant wild type enzyme. The arrangement: key: −: no activation or inhibition; +: activation less than control 1; ++: activation similar to control 1, within 10%; +++: activation more than control 1 and less than control (compound 161); ++++: activation similar to compound 161, within 10%. The format is biochemical. The conditions noted are these: activation relative to benchmarks control 1 and compound 161.

Series [3] can be described thus: RLM stability T1/2. The format is in vitro ADME. The following applies: rat, liver microsomes. The protocol:
(§1) In vitro ADMET of compounds of the present disclosure was carried out according to known methods in the art. Below are data for certain compounds of the present disclosure.

Series [4] is described as follows: Aqueous solubility. The format is physicochemical. How it is done:
as §1

The nature of series [5]: MLM stability T1/2. The format is in vitro ADME. The following applies: mouse, liver microsomes. The protocol: as §1
Background: Microsomes from liver hold many membrane-bound enzymes, among them those of drug oxidation.

The nature of series [6]: NHPLM stability T1/2. The format is in vitro ADME. The following applies: monkey, liver microsomes. The protocol:
as §1

Series [7] is described as follows: HLM stability T1/2. The format is in vitro ADME. The following applies: human, liver microsomes; read-out: HLM T1/2. How it is done:
as §1

Series [8] in a line: LogD (pH 7.4). The format is physicochemical. The protocol: as §1

Numbering of substitutions follows the chain as printed.

As for `CCC(C)S(=O)(=O)c1nccc(Cl)c1C(=O)NCc1ccc(OC)c(F)c1` (centres unmarked) [Compound 223], the “ALDH2 (mutant)” value in series [1] is on record as “+”. In series [2], the “ALDH2 (wild-type)” value is “+”.
On to `COc1ccc(CNC(=O)c2c(C(F)(F)F)ccnc2OCC(C)C)cc1F` [Compound 226], for which, in series [1], the “ALDH2 (mutant)” value is listed as “+”. In addition, the “ALDH2 (wild-type)” value in series [2] is “+”.
Take `CC(C)Oc1ccc(CNC(=O)c2c(Cl)ccnc2NCC2CC2)cc1F` [Compound 189]: the “ALDH2 (mutant)” value in series [1] is listed as “+”. The “ALDH2 (wild-type)” value in series [2] is “−”.
In the case of `COc1ccc(CNC(=O)c2c(Cl)ccnc2OC(C)C)cc1F` [Compound 195], the “ALDH2 (mutant)” value in series [1] is on record as “++”. For the same compound, the “ALDH2 (wild-type)” value in series [2] was “++”.
Turning to `CCC(CC)Oc1nccc(C(F)(F)F)c1C(=O)NCc1ccc(OC)c(F)c1` [Compound 228], the “ALDH2 (mutant)” value in series [1] is recorded as “+”. Further, the “ALDH2 (wild-type)” value in series [2] is listed as “+”.
For the compound `CCC(C)Sc1nccc(Cl)c1C(=O)NCc1ccc(OC)c(F)c1` (centres unmarked) [Compound 217], the “ALDH2 (mutant)” value in series [1] is “++”. Also, in series [2], the “ALDH2 (wild-type)” value is “+”.
For the compound `COc1ccc(CNC(=O)c2c(Cl)ccnc2OCC2CCC2)cc1F` [Compound 198], the “ALDH2 (mutant)” value in series [1] was “+++”. Moreover, in series [2], the “ALDH2 (wild-type)” value is given as “+++”.
As to `COc1ccc(CNC(=O)c2cc(Br)ccc2C)cc1F` [Compound 123], the “ALDH2 (mutant)” value in series [1] was “+”. In addition, the “ALDH2 (wild-type)” value in series [2] is “+”.
Take `COc1ccc(CNC(=O)c2c(Cl)ccnc2SC(C)C)cc1F` [Compound 216]: the “ALDH2 (mutant)” value in series [1] was “+”. Besides, in series [2], the “ALDH2 (wild-type)” value is on record as “+”.
Take `COc1ccc(CNC(=O)c2c(Cl)cccc2OC)cc1F` [Compound 138]: in series [1], the “ALDH2 (mutant)” value is recorded as “+++”. Also, the “ALDH2 (wild-type)” value in series [2] is “++”.
Take `COc1ccc(CNC(=O)c2c(C(F)(F)F)ccnc2OCC2CC2)cc1F` [Compound 225]: the “ALDH2 (mutant)” value in series [1] was “+”. Moreover, the “ALDH2 (wild-type)” value in series [2] is “+”.
Take `COc1ncc(CNC(=O)c2c(Cl)ccnc2OCC2CC2)cc1F` [Compound 246]: the “ALDH2 (mutant)” value in series [1] is “++”. Moreover, in series [2], the “ALDH2 (wild-type)” value is recorded as “+”.
Take `COc1ccc(CNC(=O)c2c(OCC3CC3)ccnc2OCC2CC2)cc1F` [Compound 162]: the “ALDH2 (mutant)” value in series [1] is “++”. The “ALDH2 (wild-type)” value in series [2] is listed as “+”.
For the compound `COc1cccc(CNC(=O)c2c(Cl)cccc2Cl)c1` [Compound 103], in series [1], the “ALDH2 (mutant)” value is recorded as “+”. For the same compound, the “ALDH2 (wild-type)” value in series [2] is listed as “+”.
Regarding `COc1ccc(CNC(=O)c2c(Cl)cccc2OCC(C)(C)N(C)C)cc1F` [Compound 167], in series [1], the “ALDH2 (mutant)” value is “+”. In series [2], the “ALDH2 (wild-type)” value is recorded as “+”.
For `COc1ccc(CNC(=O)c2ccccc2Cl)cc1F` [Compound 121], in series [1], the “ALDH2 (mutant)” value is “+”. Besides, the “ALDH2 (wild-type)” value in series [2] is reported as “+”.
Turning to `COc1ccc(CNC(=O)c2c(Cl)ccnc2NCC(C)C)cc1F` [Compound 182], the “ALDH2 (mutant)” value in series [1] is recorded as “++”. In addition, the “ALDH2 (wild-type)” value in series [2] is “+”.
With `COc1ccc(CNC(=O)c2c(Cl)cccc2Cl)cc1O` [Compound 101], the “ALDH2 (mutant)” value in series [1] is “+”. Besides, in series [2], the “ALDH2 (wild-type)” value is listed as “+”.
In the case of `COc1ccc(CNC(=O)c2c(Cl)ccnc2OCC2CC2)c(F)c1F` [Compound 179], the “ALDH2 (mutant)” value in series [1] is reported as “++”. For the same compound, the “ALDH2 (wild-type)” value in series [2] is reported as “+”.
As to `COc1ccc(CNS(=O)(=O)c2c(Cl)cccc2NCC2CC2)cc1F` [Compound 163], the “ALDH2 (mutant)” value in series [1] is listed as “+”. In addition, the “ALDH2 (wild-type)” value in series [2] is recorded as “+”.
For `COc1ccc(CNC(=O)c2c(Cl)ccnc2Cl)cc1F` [Compound 157], the “ALDH2 (mutant)” value in series [1] is reported as “++”. In addition, in series [2], the “ALDH2 (wild-type)” value is given as “++”.
Consider `O=S(=O)(NCc1ccc(F)c(F)c1)c1c(Cl)cccc1Cl` [Compound 156], for which, in series [1], the “ALDH2 (mutant)” value was “+”. Moreover, in series [2], the “ALDH2 (wild-type)” value was “−”.
For `COc1ccc(CNC(=O)c2c(Cl)ccnc2OCCN(C)C)cc1F` [Compound 184], the “ALDH2 (mutant)” value in series [1] was “++”. The “ALDH2 (wild-type)” value in series [2] is on record as “+”.
As a reminder, the logD is lipophilicity at a set pH, counting ionised and neutral species. As for `COc1ccc(CNC(=O)c2c(Cl)cccc2OCC2CC2)cc1F` [Compound 135], the half-life is 45.2 s in series [3], 45.2 s in series [5], 41.1 s in series [6] and 160 s in series [7]. Besides, the “ALDH2 (mutant)” value in series [1] was “++++”. In addition, in series [4], the “Aqu. Solu.” value is 5 µg/mL. The “ALDH2 (wild-type)” value in series [2] is “++++”. The compound also came in with a logD in series [8] of 3.8.
Regarding `COc1ccc(CNC(=O)c2c(Cl)ccnc2NCC2CC2)cc1F` [Compound 160], the “ALDH2 (mutant)” value in series [1] is recorded as “++”. For the same compound, the “ALDH2 (wild-type)” value in series [2] was “++”.
Turning to `CCC(C)Oc1nccc(Cl)c1C(=O)NCc1ccc(OC)c(F)c1` (centres unmarked) [Compound 202], the “ALDH2 (mutant)” value in series [1] is listed as “+”. For the same compound, the “ALDH2 (wild-type)” value in series [2] is “++”.
On to `COc1cccc(CNC(=O)c2c(Cl)cccc2Br)c1` [Compound 107], for which, in series [1], the “ALDH2 (mutant)” value was “+”. Further, the “ALDH2 (wild-type)” value in series [2] is on record as “+”.
Turning to `COc1ccc(CNC(=O)c2c(Cl)ccnc2OCC(C)(C)C)cc1F` [Compound 203], the “ALDH2 (mutant)” value in series [1] was “++”. In series [2], the “ALDH2 (wild-type)” value is reported as “++”.
